Assay [1] deals with S1P1 (membranes prepared from S1P1/CHO cells) (Homo sapiens (Human), UniProt P21453). As to the kind of experiment: Receptor [35S] GTPγS binding assay (S1P1 GTPγS). The class given is biochemical. Conditions: phosphate examples; read-out: S1P1 GTPγS. The protocol:
(§1) Receptor [^35S] GTPγS Binding Assays: (S1P1 GTPγS/S1P3 GTPγS)
Compounds were loaded in a 384 Falcon v-bottom plate (0.5 μl/well in a 11 point, 3-fold dilution). Membranes prepared from S1P1/CHO cells or EDG3-Gal5-bla HEK293T cells (EDG3 equivalent S1P3) were added to the compound plate (40 μl/well, final protein 3 μg/well) with MULTIDROP®. [^35S] GTP (1250 Ci/mmol, Perkin Elmer) was diluted in assay buffer: 20 mM HEPES, pH7.5, 10 mM MgCl2, 150 mM NaCl, 1 mM EGTA (ethylene glycol tetraacetic acid), 1 mM DTT (Dithiothreitol), 10 μM GDP, 0.1% fatty acid free BSA, and 10 μg/ml Saponin to 0.4 nM. 40 μl of the [^35S] GTP solution was added to the compound plate with a final concentration of 0.2 nM. The reaction was kept at room temperature for 45 min. At the end of incubation, all the mixtures in the compound plate were transferred to Millipore 384-well FB filter plates via the VELOCITY11® Vprep liquid handler. The filter plate was washed with water 4 times by using the manifold Embla plate washer and dried at 60° C. for 45 min. MicroScint 20 scintillation fluid (30 μl) was added to each well for counting on the Packard TOPCOUNT®. […]
(Binding of GTPγS marks nucleotide exchange on a G protein.)

The target of the next assay is hS1P1/CHO cells (Homo sapiens (Human), UniProt P21453). As to the kind of experiment: hS1P1 ERK phosphorylation (S1P1 pERK). The format is cell-based. Conditions: phosphate examples. The protocol:
hS1P1 ERK Phosphorylation (S1P1 pERK)
hS1P1/CHO cells were plated into BD Amine 384-well plates the day before the assay. On the day of the assay, growth medium was removed and replaced with serum-free medium (Ham's F-12 Invitrogen) and incubated for 2 hours. Test compounds pre-diluted in HBSS (Gibco)/20 mM HEPES (Gibco) were transferred to the cell plates and incubated for 7 minutes at 37° C. Cells were lysed in lysis buffer (Perkin Elmer) and phospho-ERK was measured using the SureFire pERK kit (Perkin Elmer) as described by the manufacturer. Data was plotted as percentage activation of the test compound relative to the efficacy of 10 μM S1P.

The next assay deals with human S1P1 (Homo sapiens (Human), UniProt P21453). Nature of the assay: S1P1 binding assay (33P-S1P radioligand competition, CHO cell membranes). Conditions: phosphate examples; read-out: S1P1 Binding. The protocol:
Membranes were prepared from CHO cells expressing human S1P1. Cells pellets (1×10^9 cells/pellet) were suspended in buffer containing 20 mM HEPES (4-(2-hydroxyethyl)-1-piperazineethanesulfonic acid), pH 7.5, 50 mM NaCl, 2 mM EDTA (Ethylenediaminetetraacetic acid) and Protease Inhibitor cocktail (Roche), and disrupted on ice using the Polytron homogenizer. The homogenate was centrifuged at 20,000 rpm (48,000 g) and the supernatant was discarded. The membrane pellets were resuspended in buffer containing 50 mM HEPES, pH 7.5, 100 mM NaCl, 1 mM MgCl2, 2 mM EDTA and stored in aliquots at −80° C. after protein concentration determination.

The target in assay [2] is S1P3 (membranes prepared from EDG3-Gal5-bla HEK293T cells) (Homo sapiens (Human), UniProt Q99500). As to the kind of experiment: Receptor [35S] GTPγS binding assay (S1P3 GTPγS). The format is biochemical. Conditions: phosphate examples; read-out: S1P3 GTPγS. As to the method: as §1
Compounds were loaded in a 384 Falcon v-bottom plate (0.5 μl/well in a 11 point, 3-fold dilution). Membranes prepared from S1P1/CHO cells or EDG3-Gal5-bla HEK293T cells (EDG3 equivalent S1P3) were added to the compound plate (40 μl/well, final protein 3 μg/well) with MULTIDROP®. [^35S] GTP (1250 Ci/mmol, Perkin Elmer) was diluted in assay buffer: 20 mM HEPES, pH7.5, 10 mM MgCl2, 150 mM NaCl, 1 mM EGTA (ethylene glycol tetraacetic acid), 1 mM DTT (Dithiothreitol), 10 μM GDP, 0.1% fatty acid free BSA, and 10 μg/ml Saponin to 0.4 nM. 40 μl of the [^35S] GTP solution was added to the compound plate with a final concentration of 0.2 nM. The reaction was kept at room temperature for 45 min. At the end of incubation, all the mixtures in the compound plate were transferred to Millipore 384-well FB filter plates via the VELOCITY11® Vprep liquid handler. The filter plate was washed with water 4 times by using the manifold Embla plate washer and dried at 60° C. for 45 min. MicroScint 20 scintillation fluid (30 μl) was added to each well for counting on the Packard TOPCOUNT®.
A smaller value for GTPγS S1P1 EC50 value indicated greater activity for the compound in the GTPγS S1P1 binding assay. A larger value for the GTPγS S1P3 EC50 value indicated less activity in the GTPγS S1P3 binding assay. […] Thus the compounds of the present invention may be used in treating, preventing, or curing various S1P1 receptor-related conditions while reducing or minimizing the side effects due to S1P3 activity. The selectivity of the compounds of the present invention indicate their potential use in treating, preventing, or curing autoimmune and inflammatory diseases such as multiple sclerosis, rheumatoid arthritis, inflammatory bowel disease, lupus, psoriasis, or vascular diseases, while reducing or minimizing possible side effects due to S1P3 activity. Other potential uses of the compounds of the present invention include minimizing or reducing rejection of transplanted organs, while reducing or minimizing side effects due to S1P3 activity.

Each structure is given as a SMILES string. Where only a bound is given, the exact number is not on record here.

hS1P1/CHO cells, sequence (P21453 whole entry): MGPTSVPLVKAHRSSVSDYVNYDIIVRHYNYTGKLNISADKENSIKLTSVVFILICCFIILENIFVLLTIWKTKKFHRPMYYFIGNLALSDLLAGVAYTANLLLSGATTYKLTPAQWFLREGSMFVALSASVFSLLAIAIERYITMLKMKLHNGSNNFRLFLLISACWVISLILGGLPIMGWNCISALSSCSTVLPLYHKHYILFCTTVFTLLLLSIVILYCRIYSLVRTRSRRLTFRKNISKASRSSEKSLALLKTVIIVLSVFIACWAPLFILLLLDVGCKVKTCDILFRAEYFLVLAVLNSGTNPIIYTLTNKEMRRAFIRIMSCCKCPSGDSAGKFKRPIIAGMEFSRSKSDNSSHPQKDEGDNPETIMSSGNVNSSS
S1P1 (membranes prepared from S1P1/CHO cells), sequence (P21453 whole entry): as above
human S1P1, sequence (P21453 whole entry): as above
S1P3 (membranes prepared from EDG3-Gal5-bla HEK293T cells), sequence (Q99500 whole entry): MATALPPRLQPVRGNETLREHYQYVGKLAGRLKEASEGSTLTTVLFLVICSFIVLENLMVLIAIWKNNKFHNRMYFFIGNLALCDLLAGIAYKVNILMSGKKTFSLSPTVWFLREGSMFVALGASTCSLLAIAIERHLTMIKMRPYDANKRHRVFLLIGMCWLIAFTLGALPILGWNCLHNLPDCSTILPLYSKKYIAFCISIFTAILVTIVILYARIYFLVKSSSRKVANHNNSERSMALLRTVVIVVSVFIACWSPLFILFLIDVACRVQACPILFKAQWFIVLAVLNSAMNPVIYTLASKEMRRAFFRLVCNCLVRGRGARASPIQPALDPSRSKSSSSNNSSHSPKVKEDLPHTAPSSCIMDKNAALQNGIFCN

Turning to `NC1(COP(=O)(O)O)CC[C@H](c2ccc3c(c2)CC[C@@H](c2ccccc2)C3)C1` (single isomer, unassigned) [compound 570], the EC50 in assay [1] was 10 to 100 nM; at hS1P1/CHO cells, < 10 nM; in assay [2], > 625 nM. In addition, at human S1P1, the IC50 fell in the range of 10 to 100 nM.
For the molecule `C=CCOCCO[C@@H]1CCc2cc(C3CCC(N)(COP(=O)(O)O)C3)ccc2C1` (single isomer, unassigned) [compound 579], the EC50 in assay [1] is 100 to 1000 nM; at hS1P1/CHO cells, 10 to 100 nM; in assay [2], > 625 nM. Further, the IC50 on human S1P1 lay in the range of 100 to 1000 nM.
With `N[C@@]1(COP(=O)(O)O)CC[C@@H](c2ccc3c(c2)CC[C@H](OCCOc2ccccc2)C3)C1` (single isomer, unassigned) [compound 582], the values for the EC50 (in assay [1]; at hS1P1/CHO cells; in assay [2]) were 10 to 100 nM, < 10 nM and > 625 nM, respectively. For the same molecule, the IC50 at human S1P1 was < 10 nM.
`N[C@@]1(COP(=O)(O)O)CC[C@@H](c2ccc3c(c2)CC[C@H](OCCOCc2cccs2)C3)C1` (single isomer, unassigned) [compound 589]: the EC50 in assay [1] was 10 to 100 nM; on hS1P1/CHO cells, < 10 nM; in assay [2], > 100 nM. Further, the IC50 at human S1P1 is < 10 nM.
For the molecule `COc1ccc(CC[C@@H]2CCc3cc(C4CCC(N)(COP(=O)(O)O)C4)ccc3C2)cc1` (single isomer, unassigned) [compound 593], the EC50 in assay [1] is 10 to 100 nM; at hS1P1/CHO cells it was 10 to 100 nM; in assay [2], > 625 nM. Besides, at human S1P1, the IC50 was < 10 nM.
Turning to `COCCCCCC[C@H]1CCc2cc(C3CCC(N)(COP(=O)(O)O)C3)ccc2C1` (single isomer, unassigned) [compound 597], the EC50 in assay [1] is < 10 nM; on hS1P1/CHO cells, 10 to 100 nM; in assay [2], > 625 nM. Besides, on human S1P1, the IC50 is < 10 nM.
In the case of `COCCCCC[C@@H]1CCc2cc(C3CCC(N)(COP(=O)(O)O)C3)ccc2C1` (single isomer, unassigned) [compound 599], the EC50 in assay [1] is < 10 nM; at hS1P1/CHO cells, < 10 nM; in assay [2], > 625 nM. Besides, the IC50 on human S1P1 was < 10 nM.
For `C=CCOCCC[C@@H]1CCc2cc(C3CCC(N)(COP(=O)(O)O)C3)ccc2C1` (single isomer, unassigned) [compound 601], the EC50 in assay [1] is 100 to 1000 nM; at hS1P1/CHO cells it was < 10 nM; in assay [2], > 100 nM. Moreover, the IC50 at human S1P1 was < 10 nM.
Regarding `Cn1cc(COC[C@@H]2CCc3cc([C@H]4CC[C@](N)(COP(=O)(O)O)C4)ccc3C2)cn1` [compound 471], the EC50 was 10 to 100 nM at hS1P1/CHO cells and > 625 nM in assay [2]. The IC50 at human S1P1 fell in the range of 100 to 1000 nM.
For `N[C@]1(COP(=O)(O)O)CC[C@H](c2ccc3c(c2)CC[C@@H](COCc2ccsc2)C3)C1` [compound 473], in that order: 10 to 100 nM, > 625 nM and < 10 nM.
On to `COc1ccc(F)c(OC[C@@H]2CCc3cc([C@H]4CC[C@](N)(COP(=O)(O)O)C4)ccc3C2)c1` [compound 486], for which the EC50 was < 10 nM in assay [1] and 10 to 100 nM on hS1P1/CHO cells.
`Cc1cc(COC[C@@H]2CCc3cc([C@H]4CC[C@](N)(COP(=O)(O)O)C4)ccc3C2)sc1C` [compound 488]: the EC50 was 10 to 100 nM in assay [1] and < 10 nM at hS1P1/CHO cells. Besides, the IC50 at human S1P1 is < 10 nM.
Regarding `CC(C)CN(C)C(=O)c1cccc(OC[C@@H]2CCc3cc([C@H]4CC[C@](N)(COP(=O)(O)O)C4)ccc3C2)c1` [compound 500], the figures for the EC50 (in assay [1]; on hS1P1/CHO cells; in assay [2]) were < 10 nM, < 10 nM and > 625 nM, respectively.
With `CCCSC[C@H]1CCc2cc([C@H]3CC[C@](N)(COP(=O)(O)O)C3)ccc2C1` [compound 502], the results for the EC50 (in assay [1]; at hS1P1/CHO cells) were 10 to 100 nM and < 10 nM, respectively. Also, the IC50 on human S1P1 was < 10 nM.
For `CC(C)COCC[C@@H]1CCc2cc([C@H]3CC[C@](N)(COP(=O)(O)O)C3)ccc2C1` [compound 542], the EC50 was < 10 nM in assay [1], < 10 nM at hS1P1/CHO cells and > 625 nM in assay [2].
With `CC(C)COCC[C@H]1CCc2cc([C@H]3CC[C@](N)(COP(=O)(O)O)C3)ccc2C1` [compound 543], the EC50 is < 10 nM in assay [1], < 10 nM at hS1P1/CHO cells and > 625 nM in assay [2].
For the molecule `COc1ccc(C[C@@H]2CCc3cc([C@H]4CC[C@](N)(COP(=O)(O)O)C4)ccc3C2)cc1F` [compound 554], the EC50 was 10 to 100 nM in assay [1], 10 to 100 nM on hS1P1/CHO cells and > 625 nM in assay [2].
For the molecule `N[C@]1(COP(=O)(O)O)CC[C@H](c2ccc3c(c2)CC[C@H](c2ccncc2)C3)C1` [compound 574], the EC50 was 10 to 100 nM at hS1P1/CHO cells and > 625 nM in assay [2]. For the same molecule, the IC50 at human S1P1 fell in the range of 100 to 1000 nM.
For the molecule `N[C@@]1(COP(=O)(O)O)CC[C@@H](c2ccc3c(c2)CC[C@@H](OCCOc2ccccc2)C3)C1` [compound 583], the values for the EC50 (in assay [1]; at hS1P1/CHO cells; in assay [2]) were < 10 nM, < 10 nM and > 100 nM, respectively.
As for `N[C@@]1(COP(=O)(O)O)CCC(c2ccc3c(c2)CN(CCCc2ccccc2)C3=O)C1` (stereo partly shown) [compound 613], the EC50 at hS1P1/CHO cells was 100 to 1000 nM; in assay [2] it was > 625 nM. The IC50 at human S1P1 fell in the range of 1000 to 10000 nM.
Consider `CCCCNC(=O)OC1CCc2cc([C@H]3CC[C@@](N)(COP(=O)(O)O)C3)ccc2C1` (stereo partly shown) [compound 625], for which the EC50 is 100 to 1000 nM in assay [1], 10 to 100 nM at hS1P1/CHO cells and > 625 nM in assay [2].
As to `CCCCN(C)C(=O)OC1CCc2cc([C@H]3CC[C@](N)(COP(=O)(O)O)C3)ccc2C1` (stereo partly shown) [compound 628], the EC50 in assay [1] was < 10 nM; on hS1P1/CHO cells, < 10 nM; in assay [2], > 625 nM.
On to `CCCCC1CCCC2(CCc3cc([C@H]4CC[C@](N)(COP(=O)(O)O)C4)ccc3C2)O1` (stereo partly shown) [compound 630], for which the EC50 was 100 to 1000 nM at hS1P1/CHO cells and > 625 nM in assay [2]. Besides, the IC50 at human S1P1 was < 10 nM.
For `N[C@]1(COP(=O)(O)O)CC[C@H](c2ccc3c(c2)CCC2(CCCCO2)C3)C1` (stereo partly shown) [compound 634], in that order: 10 to 100 nM, > 625 nM and 10 to 100 nM.
`CCCC/C=C/C1=Cc2ccc([C@H]3CC[C@](N)(COP(=O)(O)O)C3)cc2CC1` [compound 647]: the EC50 in assay [1] is 100 to 1000 nM; at hS1P1/CHO cells, 10 to 100 nM; in assay [2] it was > 625 nM.
In the case of `CCCCC=C[C@H]1CCc2cc([C@H]3CC[C@](N)(COP(=O)(O)O)C3)ccc2C1` [compound 649], the EC50 lay within 100 to 1000 nM in assay [1] and 10 to 100 nM on hS1P1/CHO cells. The IC50 on human S1P1 fell in the range of 10 to 100 nM.

For the origin of these results see patent US9522888B2, “Substituted bicyclic compounds” (BRISTOL-MYERS SQUIBB COMPANY, priority 2014, dated 2016).
